The text below walks through data of ChEMBL document CHEMBL1124256, “Enantiomeric effects of homologues of disoxaril on the inhibitory activity against human rhinovirus-14” (1988).

Values after ≈ are worked out from the molar mass of the structure shown.

The test system of the test is Human rhinovirus sp. In words: In vitro minimum inhibitory concentration against human rhinovirus-14 (HRV-14). The test is classed as functional.

Compound `Cc1cc(CCCCCCCOc2ccc(C3=N[C@@H](C)CO3)cc2)on1` returned an MIC of 0.02 µg/mL (≈ 0.0561 µM).
Next, `CC[C@@H]1COC(c2ccc(OCCCCCCCc3cc(C)no3)cc2)=N1`: 0.06 µg/mL (≈ 0.162 µM); `CCCC[C@H]1COC(c2ccc(OCCCCCCCc3cc(C)no3)cc2)=N1`: 0.06 µg/mL (≈ 0.151 µM).
Next, `Cc1cc(CCCCCCCOc2ccc(C3=N[C@@H](C(C)C)CO3)cc2)on1`: 0.03 µg/mL (≈ 0.078 µM).
Next, `CCC[C@H]1COC(c2ccc(OCCCCCCCc3cc(C)no3)cc2)=N1`: 0.01 µg/mL (≈ 0.026 µM).
`CCC[C@@H]1COC(c2ccc(OCCCCCCCc3cc(C)no3)cc2)=N1`: the MIC turned out to be 0.07 µg/mL (≈ 0.182 µM).
Next, `Cc1cc(CCCCCCCOc2ccc(C3=N[C@H](C(C)C)CO3)cc2)on1`: 0.13 µg/mL (≈ 0.338 µM).
Turning to `CCCC[C@@H]1COC(c2ccc(OCCCCCCCc3cc(C)no3)cc2)=N1`, the MIC is 0.52 µg/mL (≈ 1.3 µM).
Next, `CC[C@H]1COC(c2ccc(OCCCCCCCc3cc(C)no3)cc2)=N1`: 0.01 µg/mL (≈ 0.027 µM).
Next, `Cc1cc(CCCCCCCOc2ccc(C3=N[C@H](C)CO3)cc2)on1`: 0.2 µg/mL (≈ 0.561 µM); `Cc1cc(CCCCCCCOc2ccc(C3=NC(C)CO3)cc2)on1` (stereo not drawn): 0.03 µg/mL (≈ 0.0842 µM); `Cc1cc(CCCCCCCOc2ccc(C3=NC(C)(C)CO3)cc2)on1`: 0.03 µg/mL (≈ 0.081 µM).
Next, `Cc1cc(CCCCCCCOc2ccc(C3=NCCO3)cc2)on1` [DISOXARIL]: 0.14 µg/mL (≈ 0.409 µM).
